Measured values published in the Kinase Knowledgebase extract (Sharma et al. 2016).
pKi: −log10 of the molar value.

These molecules were tested against CDK2 (human) (UniProt P24941) (assay: Enzyme Assay).

Structure (SMILES) | pKi
Cn1cnc(NC2CCCC(c3ccc4[nH][nH]c(=O)c4c3)C2)c1 (centres undefined) | > 6.00
O=c1[nH][nH]c2ccc(-c3nc(Nc4n[nH]c5cccc(Cl)c45)c4ccccc4n3)c(C(F)(F)F)c12 | > 6.00
CC(C)(C)c1cc(Nc2nc(-c3ccc4[nH][nH]c(=O)c4c3C(F)(F)F)nc3ccccc23)n[nH]1 | > 6.00
Cn1cnc(NCCC(=O)Oc2ccc3c(=O)[nH][nH]c3c2)c1 | > 6.00
O=c1[nH][nH]c2cc(NC3CCCC(Nc4cc(C5CC5)[nH]n4)C3)ccc12 (centres undefined) | > 6.00
Nc1cncc(-c2nc(Nc3n[nH]c4ccccc34)nc(-c3cc4c(=O)[nH][nH]c4cc3C(F)(F)F)n2)c1 | > 6.00
O=c1[nH][nH]c2ccc(-c3nc4c(c(Nc5n[nH]c6ccc(F)cc56)n3)CCNC4)c(C(F)(F)F)c12 | > 6.00
Cc1cc(Nc2nc(-c3ccc4[nH][nH]c(=O)c4c3)nc3ccsc23)n[nH]1 | > 6.00
Cc1cnc(NC(=O)CC(=O)Cc2ccc3c(=O)[nH][nH]c3c2)s1 | > 6.00
O=c1[nH][nH]c2cc(Nc3ncnc(Nc4cc(C5CC5)[nH]n4)n3)ccc12 | > 6.00
O=c1[nH][nH]c2ccc(-c3cc(Nc4n[nH]c5ccccc45)nnc3NCCN3CCCCC3)c(C(F)(F)F)c12 | > 6.00
Cc1cc(Nc2cc(N3CCN(C)CC3)nc(Sc3ccc4c(=O)[nH][nH]c4c3)n2)n[nH]1 | > 6.00
Cc1nc(Nc2cc(-c3ccncc3)nc(-c3ccc4[nH][nH]c(=O)c4c3C(F)(F)F)n2)n[nH]1 | > 6.00
Cc1cnc(NC2COCC(Sc3ccc4c(=O)[nH][nH]c4c3)C2)s1 (centres undefined) | > 6.00
CSc1nc(Nc2ccc3c(=O)[nH][nH]c3c2)cc(Nc2cc(C3CC3)[nH]n2)n1 | > 6.00
O=c1[nH][nH]c2cc(Nc3ncc([N+](=O)[O-])c(Nc4cc(C5CC5)[nH]n4)n3)ccc12 | > 6.00

Other lines, results leading:

pKi | Structure (SMILES)
> 6.00 | Cc1cc(Nc2cc(-c3ccccc3)nc(Nc3ccc4c(=O)[nH][nH]c4c3)n2)n[nH]1
> 6.00 | Cn1cnc(NCCCNc2ccc3c(=O)[nH][nH]c3c2)c1
> 6.00 | O=c1[nH][nH]c2cc(OC3COCC(Nc4nccnn4)C3)ccc12 (centres undefined)
> 6.00 | Cc1cnc(NC(=O)CCSc2ccc3c(=O)[nH][nH]c3c2)s1
> 6.00 | Cc1cnc(NC2CCC(Sc3ccc4c(=O)[nH][nH]c4c3)C2)s1 (centres undefined)
> 6.00 | CCc1cc(Nc2nc(Nc3ccc4c(=O)[nH][nH]c4c3)nc3ccccc23)n[nH]1
> 6.00 | Cc1cc(Nc2nc(Sc3ccc4c(=O)[nH][nH]c4c3)nc3cc(NO)ccc23)n[nH]1
> 6.00 | O=C(CCSc1ccc2c(=O)[nH][nH]c2c1)Nc1nccnn1
> 6.00 | O=c1[nH][nH]c2cc(CCCONc3ccccn3)ccc12
> 6.00 | Cc1cc(Nc2nc(-c3ccc4[nH][nH]c(=O)c4c3)cc3ccccc23)n[nH]1
> 6.00 | Cc1cc(Nc2cc(-c3ccccc3)nc(Oc3ccc4c(=O)[nH][nH]c4c3)n2)n[nH]1
> 6.00 | O=c1[nH][nH]c2cc(Cl)c(-c3cc(Nc4cc(C5CC5)[nH]n4)c4ccccc4n3)cc12
> 6.00 | O=c1[nH][nH]c2cc(O)c(-c3nc(Nc4n[nH]c5c(F)cc(F)cc45)c4ccccc4n3)cc12
> 6.00 | O=c1[nH][nH]c2cc(OCCONc3ccccn3)ccc12
> 6.00 | O=c1[nH][nH]c2cc(C(F)(F)F)c(-c3cc4cccnc4c(Nc4n[nH]c5ccccc45)n3)cc12
> 6.00 | Cc1cc(Nc2cc(CSc3ccc4c(=O)[nH][nH]c4c3)nc3ccccc23)n[nH]1
> 6.00 | O=c1[nH][nH]c2cc(Nc3nc(Nc4cc(C5CC5)[nH]n4)cc(-c4ccccc4Cl)n3)ccc12
> 6.00 | O=c1[nH][nH]c2cc(SCCC(Nc3nccnn3)c3ccccc3)ccc12 (centres undefined)
> 6.00 | O=c1[nH][nH]c2cc(CC(CCNc3cc(C4CC4)[nH]n3)Cc3ccccc3)ccc12 (centres undefined)
> 6.00 | Cc1cnc(NCCC(Cc2ccccc2)Nc2ccc3c(=O)[nH][nH]c3c2)s1 (centres undefined)
> 6.00 | O=c1[nH][nH]c2cc(Nc3nc(Nc4cc(C5CC5)[nH]n4)cc(-c4ccccc4)n3)ccc12
> 6.00 | O=c1[nH][nH]c2cc(CCC3CCCC3Nc3ccccn3)ccc12 (centres undefined)
> 6.00 | Cc1cnc(NCCC(Cc2ccccc2)Sc2ccc3c(=O)[nH][nH]c3c2)s1 (centres undefined)
